Data reported in PubChem BioAssay AID1117319 (Southern Research Institute, 2015).
Results filed as inconclusive are left out.

Biological target: Virion infectivity factor (Human immunodeficiency virus type 1 group M subtype B (isolate BH10)) + Virion infectivity factor (Human immunodeficiency virus type 1 group M subtype B (isolate BRU/LAI)) + Virion infectivity factor (Human immunodeficiency virus type 1 group M subtype B (isolate PCV12)) + Virion infectivity factor (Human immunodeficiency virus type 1 group M subtype B (isolate HXB2)) + DNA dC->dU-editing enzyme APOBEC-3G (Homo sapiens) (UniProt P69720+P69721+P69722+P69723+Q9HC16)
Test: inhibitors of Vif binding to APOBEC3G peptide, primary screen, biochemical, TR-FRET, GST-Vif 1-94, biotin-A3G peptide, dose response retest (AID 1117319);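 further: Vif residues 1-94 fused to GST binding biotinylated APOBEC3G peptide 110-148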

Row | Compound | IC50
1 | CC1(C)CCCN(C(=O)c2coc(=O)c(Br)c2)C1 | 3.54 µM
2 | Cc1cc(C)c(S(=O)(=O)N2CCCCC2)c(C)c1N(C)S(=O)(=O)c1ccc(Cl)cc1 | 13.2 µM
3 | CCN(CC(=O)Nc1c(C(=O)OC)[nH]c2ccccc12)c1ccc2c(c1)OCO2 | 5.84 µM
4 | O=C1C=Cc2ccccc2C1=O | 10.6 µM
5 | COc1cc(CNc2ccc(O)cc2)cc(Br)c1OCc1ccccc1 | 3.04 µM
6 | CCOc1ccc(N(CC(=O)NC(C)(C)C)S(=O)(=O)c2c(C)noc2C)cc1 | 5.1 µM
7 | CCC1C/C(=C/c2ccco2)C(=O)/C(=C/c2ccco2)C1 (configuration not stated) | 2.59 µM
8 | O=c1nc2s/c(=C\c3ccco3)c(=O)n2nc1Cc1ccccc1 | 4.18 µM
9 | CCOC(=O)C1CCCN(C(=O)c2ccc(CNc3c(N4CCC(C)CC4)c(=O)c3=O)cc2)C1 (configuration not stated) | 31.4 µM
10 | O=C(O)CSc1c2c(nc3cc(C(=O)Nc4cccc(C(F)(F)F)c4)ccc13)CCC2 | 13.4 µM
11 | O=C1C2C3C=CC(C3)C2C(=O)N1CNc1ccc(O)cc1 (configuration not stated) | 2.78 µM
12 | CC1CCCN(Cc2c(O)ccc3c2O/C(=C\c2ccco2)C3=O)C1 (configuration not stated) | 2.89 µM
13 | COC(=O)C(C)Sc1nnc(Cc2cc(=O)[nH]c(=O)[nH]2)n1-c1cc(C)ccc1C (configuration not stated) | 95.6 µM
14 | NC(=S)N=Nc1c(O)cc(O)c2[nH]c(=O)ccc12 | 8.04 µM
15 | COC(=O)Cc1cc(=O)n(-c2nc3ccccc3[nH]2)[nH]1 | 21.6 µM
16 | O=C(O)CCCN1C(=O)/C(=C\C(Cl)=C\c2ccccc2)SC1=S | 2.45 µM
17 | CNc1ccc(Br)cc(C(=O)/C=C/c2ccc(OC)cc2OC)c1=O | 2.79 µM
18 | C=CCn1c(O)c(C(CC)=Nc2ccc(N(C)C)cc2)c(=O)[nH]c1=O | 57.6 µM
19 | O=C1CC(Nc2ccc(N3CCOCC3)cc2)C(=O)N1Cc1ccccc1 (configuration not stated) | 2.29 µM
20 | CCCC(=O)NC1=C(Cl)C(=O)c2ccccc2C1=O | 13.1 µM
21 | O=C(NCc1ccccn1)c1coc(=O)c(Br)c1 | 58.6 µM
22 | O=C(NNC(=O)c1ccccc1O)c1ccc(-c2ccc([N+](=O)[O-])cc2)o1 | 32.3 µM
23 | Cc1c(N=C2C=C(Br)C(=O)C(Br)=C2)c(=O)n(-c2ccccc2)n1C | 14.1 µM

Row | Compound | IC50
24 | CC(=O)c1cccc(NC(=O)c2cnn3ccccc23)c1 | 77.6 µM
25 | C=CCn1c(C)cc(-c2csc(N)n2)c1C | 1.23 µM
26 | COC(=O)c1ccc(C(=O)OC)c(NC(=O)Cc2cccs2)c1 | 4.22 µM
27 | COc1cc(NCCCCCCN)c2ncccc2c1OC | 3.55 µM
28 | O=[N+]([O-])c1ccc(O)c2ncccc12 | 46.5 µM
29 | C(=C\c1ccco1)/C=N/n1cnnc1 | 1.35 µM
30 | Nc1ccc(N(CCO)CCO)cc1 | 2.17 µM
31 | O=C(/C=C/Nc1ccccc1Br)c1ccccn1 | 41.5 µM
32 | Cc1ccc(CCC(=O)Nc2ccc(S(N)(=O)=O)cc2)o1 | 57.4 µM
33 | N#CC(C#N)=Cc1cccn1-c1ccc(C(=O)O)cc1 | 10.3 µM
34 | CC(=O)c1ccc2c(c1)C1C=CCC1C(c1ccncc1)N2 (configuration not stated) | 3.16 µM
35 | COc1ccccc1NCCC(=O)OCC(=O)NCc1ccco1 | 13.9 µM
36 | O=C(CCc1ccc(S(=O)(=O)NCCc2ccccc2)cc1)Nc1ccc2c(c1)OCO2 | 43.5 µM
37 | CC1=NN(c2cccc(C(=O)O)c2)C(=O)/C1=C\C=C\c1ccco1 | 2.89 µM
38 | O=C1NN(c2ccc(Cl)cc2)C(=O)/C1=C\c1ccc(-c2cccc(C(=O)O)c2)o1 | 5.76 µM
39 | COC(=O)CSc1nnc(CNC(=O)Cc2ccccc2)n1-c1ccccc1OC | 77.7 µM
40 | CC(N=Cc1cccc(O)c1O)c1ccccc1 (configuration not stated) | 2.61 µM
41 | Cc1ccc(-n2nc(-c3ccc(N)cc3)cc2N)cc1 | 33.5 µM
42 | O=[N+]([O-])c1c(Nc2ccccc2O)cc(Cl)c2nonc12 | 9.34 µM
43 | O=C(CN1CCN(S(=O)(=O)c2ccc(Cl)s2)CC1)NCc1ccc(Cl)cc1 | 7.67 µM
44 | COC1=C(OC)C(=O)C(Sc2ccc3ccccc3c2)=CC1=O | 8.68 µM
45 | Cc1nc2ccc(NC(=O)Cc3cccs3)cc2s1 | 84 µM
46 | CC1=CC(C)(C)N2C(=O)C(=Nc3ccc(O)cc3)c3cccc1c32 | 3.5 µM

Row | Compound | IC50
47 | O=C(/C=C/c1ccc(O)c(O)c1)c1ccc(S(=O)(=O)N2CCCCCC2)cc1 | 2.29 µM
48 | CC(=O)N(\C=C/C=C/C=C1\Sc2ccccc2C1=O)c1ccccc1 | 5.47 µM
49 | N/C(=N\N=C/c1ccc(-c2ccc(O)c(C(=O)O)c2)o1)N[N+](=O)[O-] | 15.2 µM
50 | COC(=O)C1=C(O)/C(=C\c2ccc(CNC(=O)C(=O)Nc3ccc(C)cc3)o2)N=C1C | 24.1 µM
51 | CC1C=CC=CC=CC=CC=CC=CC=CC(OC2OC(C)C(O)C(N)C2O)CC2OC(O)(CC(O)CC(O)C(O)CCC(O)CC(O)CC(=O)OC(C)C(C)C1O)CC(O)C2C(=O)O (configuration not stated) | 0.87 µM
52 | CC(=O)N1CCN(c2nc(-c3ccco3)c3c(c2C#N)CC(C)(C)SC3)CC1 | 25.3 µM
53 | CC(=O)c1sc2nc(-c3ccco3)ccc2c1N | 2.78 µM
54 | O=C1c2ccccc2CC1Sc1nnc(-c2ccccn2)o1 (configuration not stated) | 98.4 µM
55 | Oc1cc2c(cc1O)[C@H]1c3ccc(O)c(O)c3OC[C@@]1(O)C2 | 0.57 µM
56 | CCOC(=O)c1ccc2c(c1)C1C=CCC1C(C(=O)O)N2 (configuration not stated) | 1.25 µM
57 | Cc1ccc(C)n1-c1cccc(C(=O)O)c1 | 0.72 µM
58 | Cc1ccc(/C=C2\SC(=S)N(c3cccnc3)C2=O)o1 | 6.87 µM
59 | Cc1ccc(SCCN2C(=O)NC(C)(C)C2=O)cc1 | 7.32 µM
60 | N#Cc1c(-c2ccco2)cc(-c2ccccc2)[nH]c1=O | 14 µM
61 | O=C(O)c1ccc(-n2cccc2/C=N\NC(=O)c2cc3cc(Br)ccc3o2)cc1 | 6.47 µM
62 | COc1ccc2c(c1)O[C@@H](c1ccc3c(c1)OCO3)[C@H](OC(=O)Nc1cc(OC)c(OC)c(OC)c1)C2=O | 66.6 µM
63 | CCc1cc(=O)n2[nH]c(C)c(-c3ccccc3OC)c2n1 | 4.38 µM
64 | Cc1ccc(S(=O)(=O)Cn2nnnc2C(CC(C)C)N2CCN(C)CC2)cc1 (configuration not stated) | 9.85 µM
65 | NC(=O)c1ccc(N2CCN(c3ccc(O)cc3)CC2)c([N+](=O)[O-])c1 | 7.08 µM
66 | C=C(C)C(=O)Nc1cccc(C2=NOC3(C2)C[C@@H](C(N)=O)N(C(=O)CCCCC)C3)c1 (some centres not stated) | 0.22 µM
67 | CCN1/C(=C/C=C/C=C/C=C/c2sc3ccccc3[n+]2CC)Sc2ccccc21 | 4.33 µM
68 | COC1=C(N)C(=O)c2nc(C)ccc2C1=O | 18.3 µM
69 | O=C1c2ccccc2C(=O)N1/N=C/c1ccc(O)c(O)c1O | 4.54 µM

Row | Compound | IC50
70 | O=[N+]([O-])c1c(NCCCO)cc(SCc2ccco2)c2nonc12 | 4.65 µM
71 | CCCCn1c(N)c(N(CCOC)C(=O)c2cc(-c3ccco3)nc3ccccc23)c(=O)[nH]c1=O | 10.9 µM
72 | CCN(CC)C(=O)c1ccc2c(c1)C1C=CCC1C(C(=O)O)N2 (configuration not stated) | 2.81 µM
73 | CC1COCC(C)N1C1=C(Cl)C(=O)c2ccccc2C1=O (configuration not stated) | 11 µM
74 | Cc1cc2c(N)cccc2nn1 | < 0.195 µM
75 | Cc1cccc(/C=C(\C(=O)O)c2ccc(S(=O)(=O)N3CCCC3)s2)c1 | 22 µM
76 | O=C(O)CCC(=O)N(Cc1cccs1)Cc1cccs1 | 79.6 µM
77 | [O-][n+]1onc2c1CCc1c-2nc(-c2ccccc2)n1OCc1ccccc1 | 76.9 µM
78 | CC(=O)c1ccc(S(=O)(=O)Nc2cccc(-n3cnnn3)c2)cc1 | 12.1 µM
79 | O=C(O)CCc1ccc(-c2cccs2)n1-c1ccc(C(=O)O)cc1 | 80.6 µM
80 | COc1ccc2c(c1)CC1(CN2C)C(=O)NC(=O)N(c2ccc(C)cc2)C1=O (configuration not stated) | 58.9 µM
81 | CCN(CC)Cc1cc(O)c(CN(CC)CC)cc1O | 10.8 µM
82 | CCN(CC)c1ccc(NC(=O)CCS(=O)(=O)c2ccc(Br)cc2)c(C)c1 | 5.51 µM
83 | N=C(N)c1ccc(N=Nc2c(O)ccc3c2[nH]c2ccccc23)cc1 | 3.87 µM
84 | Cc1ccc(C)n1Cc1ccc(C(=O)O)cc1 | 1.55 µM
85 | O=C(O)c1ccc(-n2nc(C(F)(F)F)c3c2-c2ccoc2CC3)cc1 | 58.6 µM
86 | COc1ccc(NS(=O)(=O)c2cccc(C(=O)NNC(=O)c3cccn3C)c2)cc1 | 12.7 µM
87 | CC(=O)Nc1ccc(S(=O)(=O)Nc2nc3ccccc3nc2Nc2ccc(N)cc2)cc1 | 0.62 µM
88 | Cc1cc(-c2csc(NC(=O)c3ccc(C#N)cc3)n2)c(C)n1Cc1ccco1 | 3.35 µM
89 | O=C1CC(c2ccco2)CC(O)=C1C=Nc1cc(Cl)ccc1Cl (configuration not stated) | 4.07 µM
90 | Nc1ccc2c(O)cc(S(=O)(=O)O)cc2c1 | 9.44 µM
91 | COc1ccc2nc(-c3ccco3)c(-c3ccco3)nc2c1 | 0.35 µM
92 | CCOC(=O)c1c(NC(=O)c2cccs2)sc(C)c1C | 32.9 µM

Row | Compound | IC50
93 | CC(C)(C)c1ccc(-c2nnc(SCCC#N)n2C2CCCC2)cc1 | 86.7 µM
94 | O=c1oc2c3c4c(cc2s1)CCCN4CCC3 | 9.54 µM
95 | CN1CCN(C2=C(Cl)C(=O)C(c3cnc(N4CCCCC4)s3)=C(Cl)C2=O)CC1 | 2.5 µM
96 | COc1cccc(=O)c2c(C)n(-c3ccc(C(=O)O)cc3)c(C)c12 | 3.22 µM
97 | COc1ccc(/C=C(\NC(=O)c2ccc(OCC(C)C)cc2)C(=O)OCc2ccco2)cc1 | 32.7 µM
98 | CCc1ccccc1NC(=O)c1cccc(NC(=O)/C=C/c2ccco2)c1 | 10.8 µM
99 | CC1(C)CC(=O)C2=C(C1)NCN(Cc1ccc3c(c1)OCO3)C2 | 91.6 µM
100 | CCOc1ccccc1C(=O)NCC(=O)OCC(=O)NCCc1ccc(S(N)(=O)=O)cc1 | 75.8 µM
101 | CNc1ccc(Br)cc(C(=O)/C=C/c2ccc(OC)cc2)c1=O | 3.53 µM
102 | Cc1ccc([C@@H]2C3COCC=C3C(C#N)=C(N)C2(C#N)C#N)o1 (some centres not stated) | 10.3 µM
103 | CCc1nc2oc3cc(OC)ccc3c(=O)c2c(=O)n1Cc1ccco1 | 39.4 µM
104 | O=C(COC(=O)c1ccccc1)Nc1ncc([N+](=O)[O-])s1 | 6.6 µM
105 | COc1cc2c(cc1OC)C(C)N(C(=O)c1cc3n(n1)C(C(F)(F)F)CC(c1ccco1)N3)CC2 (configuration not stated) | 27.8 µM
106 | COc1ccc(CCNC(=O)CN2CCCc3ccccc32)cc1OC | 91 µM
107 | O=C(CCS(=O)(=O)c1ccc(Br)cc1)N1CCN(c2ccc(F)cc2)CC1 | 52.8 µM
108 | O=[n+]1c2c(n([O-])c3cc(Br)ccc31)CCC2 | 19.4 µM
109 | CC[n+]1ccc(C)c2cc(S(=O)C(F)(F)F)ccc21 (configuration not stated) | 8.8 µM
110 | COc1ccc(Nc2ccc(OC)cc2)cc1 | 6.72 µM
111 | Cc1ccc2cc(CN(Cc3nnnn3Cc3ccco3)CC3CCCO3)c(=O)[nH]c2c1C (configuration not stated) | 34.4 µM
112 | Cc1ccc(-n2c(-c3cc(-c4ccco4)[nH]n3)n[nH]c2=S)c(Br)c1 | 6.39 µM
